From ChEMBL document CHEMBL1143794, “Discovery of [7-(2,6-dichlorophenyl)-5-methylbenzo [1,2,4]triazin-3-yl]-[4-(2-pyrrolidin-1-ylethoxy)phenyl]amine--a potent, orally active Src kinase inhibitor with anti-tumor activity in preclinical assays” (Bioorg Med Chem Lett, 2007)

Experiments:
[1] = biological target: Proto-oncogene tyrosine-protein kinase Src (Homo sapiens, UniProt P12931)
CT26 [2] = experiment: Antitumor activity against mouse CT26 cells; format: functional, cell-based
[3] = Half life in dog at 25 mg/kg, po; format: ADME, organism-based, Canis lupus familiaris; parameters: dose 25 mg/kg, route oral; conditions: in vivo
[4] = Cmax in rat at 25 mg/kg, po; format: ADME, organism-based; parameters: dose 25 mg/kg, route oral; conditions: in vivo
Cytochrome P450 2C9 = Cytochrome P450 2C9 (Homo sapiens, UniProt P11712); experiment: Inhibition of CYP2C9; format: ADME
[5] = Tmax in dog at 25 mg/kg, po; format: ADME, organism-based, Canis lupus familiaris; parameters: dose 25 mg/kg, route oral; conditions: in vivo
HT-29 = experiment: Antitumor activity against HT29 cells; format: functional, cell-based; conditions: Homo sapiens
[6] = Cmax in dog at 25 mg/kg, po; format: ADME, organism-based, Canis lupus familiaris; parameters: dose 25 mg/kg, route oral; conditions: in vivo
Mus musculus [7] = experiment: AUC in mouse at 25 mg/kg, po; format: ADME, organism-based, Plasma; parameters: dose 25 mg/kg, route oral; conditions: in vivo
Cytochrome P450 3A4 = Cytochrome P450 3A4 (Homo sapiens, UniProt P08684); experiment: Inhibition of CYP3A4; format: ADME
A549 [8] = experiment: Antitumor activity against A549 cells; format: functional, cell-based; conditions: Homo sapiens
[9] = Tmax in rat at 25 mg/kg, po; format: ADME, organism-based; parameters: dose 25 mg/kg, route oral; conditions: in vivo
Canis familiaris [10] = experiment: AUC in dog at 25 mg/kg, po; format: ADME, organism-based, Canis lupus familiaris, Plasma; parameters: dose 25 mg/kg, route oral; conditions: in vivo
MDA-MB-231 = experiment: Antitumor activity against MDA-MB-231 cells; format: functional, cell-based; conditions: Homo sapiens
Cytochrome P450 2C19 = Cytochrome P450 2C19 (Homo sapiens, UniProt P33261); experiment: Inhibition of CYP2C19; format: ADME
CT26 [11] = experiment: Reduction of tumor volume in CT26 xenografted in BALB/c mouse at 50 mg/kg, ip relative to control; format: functional; parameters: scale not given: the % may be the effect or the level left; conditions: route intraperitoneal
A549 [12] = experiment: Reduction of tumor burden in A549 cells xenografted in nu/nu mouse at 40 mg/kg, ip relative to control; format: functional; parameters: scale not given: the % may be the effect or the level left; conditions: route intraperitoneal
COLO 205 = experiment: Antitumor activity against Colo205 cells; format: functional, cell-based; conditions: Homo sapiens
Cytochrome P450 2D6 = Cytochrome P450 2D6 (Homo sapiens, UniProt P10635); experiment: Inhibition of CYP2D6; format: ADME
[13] = Half life in mouse at 25 mg/kg, po; format: ADME, organism-based; parameters: dose 25 mg/kg, route oral; conditions: in vivo
[14] = Bioavailability in dog at 25 mg/kg, po; format: ADME, organism-based, Canis lupus familiaris; conditions: in vivo
Cytochrome P450 1A2 = biological target: T1, Cytochrome P450 1A2 (Homo sapiens, UniProt P05177); experiment: Inhibition of CYP1A2; format: ADME
T1 sequence (P05177 whole entry): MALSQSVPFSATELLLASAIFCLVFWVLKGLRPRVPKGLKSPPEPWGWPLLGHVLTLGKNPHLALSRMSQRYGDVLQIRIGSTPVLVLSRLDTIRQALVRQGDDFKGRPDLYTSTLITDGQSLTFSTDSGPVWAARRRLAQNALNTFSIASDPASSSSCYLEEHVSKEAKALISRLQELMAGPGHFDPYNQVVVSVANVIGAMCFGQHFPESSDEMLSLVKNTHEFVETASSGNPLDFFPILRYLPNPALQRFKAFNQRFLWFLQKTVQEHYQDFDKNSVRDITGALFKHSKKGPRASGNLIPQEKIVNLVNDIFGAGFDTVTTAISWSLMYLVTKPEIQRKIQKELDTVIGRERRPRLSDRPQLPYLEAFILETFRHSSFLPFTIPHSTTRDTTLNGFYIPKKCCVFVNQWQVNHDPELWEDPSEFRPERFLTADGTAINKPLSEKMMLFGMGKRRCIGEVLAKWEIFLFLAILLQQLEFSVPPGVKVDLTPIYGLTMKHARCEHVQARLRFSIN

Rattus norvegicus [15] = experiment: Volume of distribution in rat at 25 mg/kg, po; format: ADME, organism-based; parameters: dose 25 mg/kg, route oral; conditions: in vivo
Canis familiaris [16] = experiment: Volume of distribution in dog at 25 mg/kg, po; format: ADME, organism-based, Canis lupus familiaris; parameters: dose 25 mg/kg, route oral; conditions: in vivo
Rattus norvegicus [17] = experiment: AUC in rat at 25 mg/kg, po; format: ADME, organism-based, Plasma; parameters: dose 25 mg/kg, route oral; conditions: in vivo
K562 = experiment: Antitumor activity against K562 cells; format: functional, cell-based; conditions: Homo sapiens
[18] = biological target: Platelet-derived growth factor receptor beta (Homo sapiens, UniProt P09619); experiment: Inhibition of PDGFRbeta
[19] = Clearance in dog at 25 mg/kg, po; format: ADME, organism-based, Canis lupus familiaris; parameters: dose 25 mg/kg, route oral; conditions: in vivo
MCF7 = experiment: Antitumor activity against MCF7 cells; format: functional, cell-based; conditions: Homo sapiens
[20] = Tmax in mouse at 25 mg/kg, po; format: ADME, organism-based; parameters: dose 25 mg/kg, route oral; conditions: in vivo
[21] = Half life in rat at 25 mg/kg, po; format: ADME, organism-based; parameters: dose 25 mg/kg, route oral; conditions: in vivo
[22] = Clearance in rat at 25 mg/kg, po; format: ADME, organism-based; parameters: dose 25 mg/kg, route oral; conditions: in vivo
[23] = Bioavailability in rat at 25 mg/kg, po; format: ADME, organism-based; conditions: in vivo
MOLT-4 = experiment: Antitumor activity against Molt4 cells; format: functional, cell-based; conditions: Homo sapiens
Mus musculus [24] = experiment: Volume of distribution in mouse at 25 mg/kg, po; format: ADME, organism-based; parameters: dose 25 mg/kg, route oral; conditions: in vivo
[25] = Cmax in mouse at 25 mg/kg, po; format: ADME, organism-based; parameters: dose 25 mg/kg, route oral; conditions: in vivo
[26] = Bioavailability in mouse at 25 mg/kg, po; format: ADME, organism-based; conditions: in vivo
[27] = Clearance in mouse at 25 mg/kg, po; format: ADME, organism-based; parameters: dose 25 mg/kg, route oral; conditions: in vivo

Chain of Proto-oncogene tyrosine-protein kinase Src (P12931 2-536 limits assumed): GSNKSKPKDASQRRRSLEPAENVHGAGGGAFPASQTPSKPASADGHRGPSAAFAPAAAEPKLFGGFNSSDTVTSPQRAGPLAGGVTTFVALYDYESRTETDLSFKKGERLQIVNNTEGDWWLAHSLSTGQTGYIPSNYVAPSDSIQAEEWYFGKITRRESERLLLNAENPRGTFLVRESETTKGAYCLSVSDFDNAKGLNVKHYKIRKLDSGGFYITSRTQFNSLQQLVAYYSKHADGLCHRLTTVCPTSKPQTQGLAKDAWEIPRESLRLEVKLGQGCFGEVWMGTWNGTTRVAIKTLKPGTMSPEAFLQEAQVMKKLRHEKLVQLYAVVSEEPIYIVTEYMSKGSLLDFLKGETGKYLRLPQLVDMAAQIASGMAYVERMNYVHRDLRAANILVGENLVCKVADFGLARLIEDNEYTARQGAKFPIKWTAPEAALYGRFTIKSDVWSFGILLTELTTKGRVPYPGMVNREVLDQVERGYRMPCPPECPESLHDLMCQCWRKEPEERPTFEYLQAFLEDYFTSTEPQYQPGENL
Chain of Cytochrome P450 2D6 (P10635 whole entry): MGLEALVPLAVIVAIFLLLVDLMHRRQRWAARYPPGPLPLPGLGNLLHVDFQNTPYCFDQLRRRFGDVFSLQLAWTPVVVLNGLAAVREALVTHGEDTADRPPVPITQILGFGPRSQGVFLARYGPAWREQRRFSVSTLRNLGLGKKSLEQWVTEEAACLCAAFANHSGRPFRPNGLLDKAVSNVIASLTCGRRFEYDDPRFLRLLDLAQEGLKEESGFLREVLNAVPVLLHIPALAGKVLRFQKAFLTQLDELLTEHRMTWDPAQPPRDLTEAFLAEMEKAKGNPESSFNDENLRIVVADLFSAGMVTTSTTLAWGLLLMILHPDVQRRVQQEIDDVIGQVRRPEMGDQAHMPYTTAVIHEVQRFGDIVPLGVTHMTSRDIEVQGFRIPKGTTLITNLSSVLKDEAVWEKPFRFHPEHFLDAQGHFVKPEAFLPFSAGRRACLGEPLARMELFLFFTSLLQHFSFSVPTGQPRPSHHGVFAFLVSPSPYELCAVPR
Chain of Cytochrome P450 2C19 (P33261 whole entry): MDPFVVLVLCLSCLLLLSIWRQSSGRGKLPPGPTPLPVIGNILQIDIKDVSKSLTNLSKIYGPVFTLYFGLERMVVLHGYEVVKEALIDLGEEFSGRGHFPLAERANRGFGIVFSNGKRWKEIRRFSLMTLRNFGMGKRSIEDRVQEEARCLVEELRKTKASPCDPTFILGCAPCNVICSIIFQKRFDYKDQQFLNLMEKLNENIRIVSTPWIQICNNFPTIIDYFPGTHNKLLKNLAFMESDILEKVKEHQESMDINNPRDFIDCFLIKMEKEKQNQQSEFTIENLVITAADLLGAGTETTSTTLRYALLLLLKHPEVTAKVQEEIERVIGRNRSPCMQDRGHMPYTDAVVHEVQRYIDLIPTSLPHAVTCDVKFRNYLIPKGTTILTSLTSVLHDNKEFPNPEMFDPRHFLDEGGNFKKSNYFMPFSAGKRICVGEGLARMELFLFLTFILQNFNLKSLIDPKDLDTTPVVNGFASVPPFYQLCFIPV
Chain of Cytochrome P450 2C9 (P11712 whole entry): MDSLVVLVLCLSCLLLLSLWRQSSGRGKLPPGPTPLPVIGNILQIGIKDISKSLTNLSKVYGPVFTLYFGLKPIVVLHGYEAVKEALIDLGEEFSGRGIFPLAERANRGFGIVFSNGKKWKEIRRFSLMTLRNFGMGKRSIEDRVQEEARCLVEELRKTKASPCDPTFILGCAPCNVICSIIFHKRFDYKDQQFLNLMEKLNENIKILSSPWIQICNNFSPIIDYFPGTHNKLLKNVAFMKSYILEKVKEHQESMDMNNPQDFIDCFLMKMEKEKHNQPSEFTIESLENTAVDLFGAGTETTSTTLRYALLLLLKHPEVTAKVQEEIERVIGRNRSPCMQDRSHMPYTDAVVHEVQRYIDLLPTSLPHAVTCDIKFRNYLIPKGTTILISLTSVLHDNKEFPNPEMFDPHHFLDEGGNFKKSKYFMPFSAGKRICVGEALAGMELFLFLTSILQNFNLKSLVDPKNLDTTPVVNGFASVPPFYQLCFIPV
Chain of Cytochrome P450 3A4 (P08684 whole entry): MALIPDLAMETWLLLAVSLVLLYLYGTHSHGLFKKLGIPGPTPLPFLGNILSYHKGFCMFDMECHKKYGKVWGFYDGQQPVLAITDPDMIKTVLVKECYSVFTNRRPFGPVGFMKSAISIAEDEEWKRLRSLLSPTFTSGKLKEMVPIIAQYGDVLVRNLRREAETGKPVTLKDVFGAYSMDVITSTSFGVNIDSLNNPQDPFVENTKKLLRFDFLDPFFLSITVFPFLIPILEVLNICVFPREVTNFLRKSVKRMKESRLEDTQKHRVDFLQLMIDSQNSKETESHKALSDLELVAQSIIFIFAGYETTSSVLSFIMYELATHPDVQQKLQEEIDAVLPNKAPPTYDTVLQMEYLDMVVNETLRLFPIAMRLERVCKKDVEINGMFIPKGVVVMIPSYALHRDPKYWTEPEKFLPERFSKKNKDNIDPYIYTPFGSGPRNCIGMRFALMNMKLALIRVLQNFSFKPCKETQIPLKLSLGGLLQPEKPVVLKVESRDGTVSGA
Chain of Platelet-derived growth factor receptor beta (P09619 whole entry): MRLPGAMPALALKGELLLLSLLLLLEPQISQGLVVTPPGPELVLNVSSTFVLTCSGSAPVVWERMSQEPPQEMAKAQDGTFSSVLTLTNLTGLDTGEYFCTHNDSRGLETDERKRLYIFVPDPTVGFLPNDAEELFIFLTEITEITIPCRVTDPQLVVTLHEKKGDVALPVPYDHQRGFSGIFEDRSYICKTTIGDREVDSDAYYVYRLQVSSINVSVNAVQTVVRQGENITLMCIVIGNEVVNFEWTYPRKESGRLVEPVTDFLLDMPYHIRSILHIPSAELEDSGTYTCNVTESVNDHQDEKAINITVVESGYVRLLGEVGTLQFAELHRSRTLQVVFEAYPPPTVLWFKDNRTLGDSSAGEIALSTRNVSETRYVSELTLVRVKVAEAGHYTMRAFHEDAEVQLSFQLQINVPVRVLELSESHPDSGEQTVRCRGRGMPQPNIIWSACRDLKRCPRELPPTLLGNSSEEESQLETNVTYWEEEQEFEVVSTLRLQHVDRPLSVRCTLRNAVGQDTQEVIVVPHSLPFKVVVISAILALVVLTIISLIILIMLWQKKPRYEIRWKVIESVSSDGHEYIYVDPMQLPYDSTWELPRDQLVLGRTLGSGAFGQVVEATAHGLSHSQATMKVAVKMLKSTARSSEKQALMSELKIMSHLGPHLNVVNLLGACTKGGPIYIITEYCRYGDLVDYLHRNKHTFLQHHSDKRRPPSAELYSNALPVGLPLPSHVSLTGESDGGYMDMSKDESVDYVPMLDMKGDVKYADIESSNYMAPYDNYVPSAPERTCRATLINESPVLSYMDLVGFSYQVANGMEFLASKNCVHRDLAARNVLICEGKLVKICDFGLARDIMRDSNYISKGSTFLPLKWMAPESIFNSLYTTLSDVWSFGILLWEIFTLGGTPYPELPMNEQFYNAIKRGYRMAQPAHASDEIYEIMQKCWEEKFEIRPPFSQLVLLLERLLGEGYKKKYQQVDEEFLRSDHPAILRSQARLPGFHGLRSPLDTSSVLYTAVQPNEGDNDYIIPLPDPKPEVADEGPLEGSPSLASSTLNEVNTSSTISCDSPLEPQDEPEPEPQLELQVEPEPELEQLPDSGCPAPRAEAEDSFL

## COc1cc2c(cc1O)CCN[C@]21CS[C@H]2c3c(OC(C)=O)c(C)c4c(c3[C@@H](COC1=O)N1[C@@H]2[C@H]2c3c(cc(C)c(OC)c3O)C[C@@H]([C@@H]1O)N2C)OCO4
[1]
  IC50: 208 nM

## CCN(CC)CCOc1cccc(Nc2nnc3cc(-c4c(C)cccc4C)cc(C)c3n2)c1
CT26 [2]
  IC50: 2500 nM

## Clc1cccc(Cl)c1-c1ccc2nc(Nc3ccc(OCCN4CCCC4)cc3)nnc2c1
[1]
  IC50: 30 nM

## Cc1cc2nc(Nc3ccc(S(=O)(=O)NCCN4CCCC4)cc3)nnc2cc1N
[1]
  IC50: 92 nM

## Cc1cccc(C)c1-c1cc(C)c2nc(Nc3ccc(OCCN4CCN(C)CC4)cc3)nnc2c1
CT26 [2]
  IC50: 6600 nM

## Cc1cc(-c2c(Cl)cccc2Cl)cc2nnc(Nc3ccc(OCCN4CCCC4)cc3)nc12
[3]
  half-life: 13 h
[4]
  Cmax: 348 ng/mL
Cytochrome P450 2C9
  IC50: > 100000 nM
[5]
  Tmax: 4 h
HT-29
  IC50: > 5000 nM
[6]
  Cmax: 679 ng/mL
Mus musculus [7]
  AUC: 15300 ng·h/mL
Cytochrome P450 3A4
  IC50: 62000 nM
A549 [8]
  IC50: 900 nM
[9]
  Tmax: 8.8 h
Canis familiaris [10]
  AUC: 8680 ng·h/mL
MDA-MB-231
  IC50: 240 nM
Cytochrome P450 2C19
  IC50: 12000 nM
CT26 [11]
  Activity: 60%
CT26 [2]
  IC50: 750 nM
A549 [12]
  Activity: 86%
COLO 205
  IC50: 2500 nM
Cytochrome P450 2D6
  IC50: 33000 nM
[13]
  half-life: 8 h
[14]
  bioavailability: 42%
Cytochrome P450 1A2
  IC50: > 100000 nM
Rattus norvegicus [15]
  Vdss: 9.4 L/kg
Canis familiaris [16]
  Vdss: 18.7 L/kg
Rattus norvegicus [17]
  AUC: 8010 ng·h/mL
K562
  IC50: 215 nM
[18]
  Ki: 2090 nM
[19]
  CL/F: 14.5 mL/min/kg
MCF7
  IC50: 85 nM
[20]
  Tmax: 8 h
[21]
  half-life: 4.6 h
[22]
  CL/F: 12.7 mL/min/kg
[23]
  bioavailability: 35%
MOLT-4
  IC50: 250 nM
Mus musculus [24]
  Vdss: 16.1 L/kg
[25]
  Cmax: 415 ng/mL
[26]
  bioavailability: 74%
[27]
  CL/F: 12.7 mL/min/kg

## Cc1cccc(C)c1-c1cc(C)c2nc(Nc3ccc(C(=O)NN4CCN(C)CC4)cc3)nnc2c1
[1]
  IC50: 15 nM
CT26 [2]
  IC50: 6700 nM

## Cc1cccc(C)c1-c1cc(C)c2nc(Nc3ccc(C(=O)NN4CCNCC4)cc3)nnc2c1
[1]
  IC50: 13 nM

## Cc1cccc(C)c1-c1cc(C)c2nc(Nc3cccc(N(CCN4CCCC4)C(=O)c4ccccc4)c3)nnc2c1
[1]
  IC50: 18 nM

## Cc1cccc(C)c1-c1cc(N)c2nc(Nc3ccc(OCCN4CCCC4)cc3)nnc2c1
[1]
  IC50: 10 nM

## CNc1cc(-c2c(C)cccc2C)cc2nnc(Nc3ccc(OCCN4CCCC4)cc3)nc12
[1]
  IC50: 10 nM

## Cc1cnc(F)cc1-c1cc(C)c2nc(Nc3ccc(OCCN4CCCC4)cc3)nnc2c1
[1]
  IC50: 204 nM

## Cc1cccc(C)c1-c1cc(C)c2nc(Nc3ccc(N(CCN4CCCC4)C(=O)c4ccccc4)cc3)nnc2c1
[1]
  IC50: 16 nM
CT26 [2]
  IC50: 2400 nM

## CC(=O)Nc1cc(-c2c(C)cccc2C)cc2nnc(Nc3ccc(OCCN4CCCC4)cc3)nc12
[1]
  IC50: 14 nM

## Cc1ccc(CN)cc1-c1cc(C)c2nc(Nc3ccc(S(=O)(=O)NCCN4CCCC4)cc3)nnc2c1
[1]
  IC50: 353 nM

## c1ccc2nc(Nc3ccc(OCCN4CCCC4)cc3)nnc2c1
[1]
  IC50: > 10000 nM

## Cc1cccc(C)c1-c1cc(NS(C)(=O)=O)c2nc(Nc3ccc(OCCN4CCCC4)cc3)nnc2c1
[1]
  IC50: 21 nM

## COc1ccc(Cl)c(-c2cc(C)c3nc(Nc4ccc(OCCN5CCCC5)cc4)nnc3c2)c1
[1]
  IC50: 778 nM

## Cc1cc2nc(Nc3ccc(S(=O)(=O)NCCN4CCCC4)cc3)nnc2cc1Br
[1]
  IC50: > 10000 nM

## Cc1ccc2nnc(Nc3ccc(S(=O)(=O)NCCN4CCCC4)cc3)nc2c1
[1]
  IC50: > 10000 nM

## Cc1cccc(C)c1-c1cc(C)c2nc(Nc3ccc(OCCN4CCCC4)cc3)nnc2c1
[3]
  half-life: 19 h
[4]
  Cmax: 419 ng/mL
Cytochrome P450 2C9
  IC50: > 100000 nM
[5]
  Tmax: 1.5 h
[6]
  Cmax: 5240 ng/mL
Mus musculus [7]
  AUC: 19100 ng·h/mL
Cytochrome P450 3A4
  IC50: 42000 nM
[9]
  Tmax: 6 h
Canis familiaris [10]
  AUC: 9680 ng·h/mL
Cytochrome P450 2C19
  IC50: 12000 nM
CT26 [2]
  IC50: 2300 nM
Cytochrome P450 2D6
  IC50: 25000 nM
[13]
  half-life: 9.5 h
[14]
  bioavailability: 68%
Cytochrome P450 1A2
  IC50: > 100000 nM
Rattus norvegicus [15]
  Vdss: 7.2 L/kg
Canis familiaris [16]
  Vdss: 8.6 L/kg
Rattus norvegicus [17]
  AUC: 9570 ng·h/mL
[19]
  CL/F: 5.1 mL/min/kg
[20]
  Tmax: 6 h
[21]
  half-life: 5.6 h
[22]
  CL/F: 9.2 mL/min/kg
[23]
  bioavailability: 20%
Mus musculus [24]
  Vdss: 11.4 L/kg
[25]
  Cmax: 790 ng/mL
[26]
  bioavailability: 86%
[27]
  CL/F: 18.8 mL/min/kg

## Cc1cccc(C)c1-c1cc(C)c2nc(Nc3ccnc(OCCN4CCCC4)c3)nnc2c1
CT26 [2]
  IC50: 2400 nM
